Source: patent publication US11371097B2, “Articles for diagnosis of liver fibrosis” (THE GOVERNMENT OF THE UNITED STATES, as represented by THE …, priority 2015, dated 2022)
“And” between values parts separate entries of the source, which are not always exact repeats. Equal values may be shown once. “Also recorded” adds a separate entry of the source. Read-outs that look alike come from different tables or passages of the source.

Experiments:
[1] = type: in vivo, Male Sprague-Dawley rats; conditions: for Body weight change over the five-day exposure interval: highest dose(s)
Protocol: (§1) In vivo rat experiments were performed at Integrated Laboratory Systems (ILS, Research Triangle Park, NC). ILS's Institutional Animal Care and Use Committee approved all experimental procedures. Research was conducted in compliance with the Animal Welfare Act, and other Federal statutes and regulations relating to animals and experiments involving animals and adheres to principles stated in the “Guide for Care and Use of Laboratory Animals” as prepared by the Committee on Care and Use of Laboratory Animals of the Institute of Laboratory Animal Resources, National Research Council in facilities that are fully accredited by the Association for Assessment and Accreditation of Laboratory Animal Care, International. Male Sprague-Dawley rats (CD IGS [CRL:CD (SD)]) were purchased from Charles River Laboratories (Stone Ridge, N.Y.). Rats weighing 215-245 g (8 weeks old) were used. Briefly, rats were housed two per cage with a rat tunnel enrichment device (Bio-Serve, Frenchtown, N.J.). Rats were fed a Purina Rodent Diet No. 5002 (Ralston Purina Co., St. Louis, Mo.), supplied ad libitum. Animals received reverse osmosis-treated tap water (City of Durham, N.C.) ad libitum, which was changed at least once weekly. Controls in the animal rooms were set to maintain temperatures between 20-In vivo rat experiments were performed at Integrated Laboratory Systems (ILS, Research Triangle Park, NC). ILS's Institutional Animal Care and Use Committee approved all experimental procedures. Research was conducted in compliance with the Animal Welfare Act, and other Federal statutes and regulations relating to animals and experiments involving animals and adheres to principles stated in the “Guide for Care and Use of Laboratory Animals” as prepared by the Committee on Care and Use of Laboratory Animals of the Institute of Laboratory Animal Resources, National Research Council in facilities that are fully accredited by the Association for Assessment and Accreditation of Laboratory Animal Care, International. Male Sprague-Dawley rats (CD IGS [CRL:CD (SD)]) were purchased from Charles River Laboratories (Stone Ridge, N.Y.). Rats weighing 215-245 g (8 weeks old) were used. Briefly, rats were housed two per cage with a rat tunnel enrichment device (Bio-Serve, Frenchtown, N.J.). Rats were fed a Purina Rodent Diet No. 5002 (Ralston Purina Co., St. Louis, Mo.), supplied ad libitum. Animals received reverse osmosis-treated tap water (City of Durham, N.C.) ad libitum, which was changed at least once weekly. Controls in the animal rooms were set to maintain temperatures between 20-25° C. with a relative humidity of 30-70% and a 12-hour light/12-hour dark cycle, lights on at 6:00 AM. Clinically healthy animals were assigned to dose groups using a procedure that stratifies animals across groups by body weight such that mean body weight of each group was not statistically different from any other group using analysis of variance (Statistical Analysis System version 9.2, SAS Institute, Cary, N.C.). Animals were dosed by oral gavage for five consecutive days (+10 minutes from the previous day's dose administration time). Volume was based upon daily body weight.
(§2) Animals were observed cageside one hour following daily dose administration, then 1-2 times per day during dosing regimens. Body weights were measured daily prior to dose administration, and prior to euthanasia. Twenty-four hours after the final dose administration, animals were anesthetized with isoflurane then euthanized by exsanguination followed by decapitation. Livers were harvested at necropsy and weighed to within 0.1 g. One half of the left lobe of the liver was fixed in 10% formalin. The remaining half of the left lobe of the liver was flash frozen in liquid nitrogen, then stored below −70° C. Liver specimens were frozen in less than three minutes from time of death.

liver = type: in vivo, Male Sprague-Dawley rats; conditions: for Periportal fibrosis (Masson's trichrome): 162 mg/kg/day; for Periportal fibrosis (Masson's trichrome) / Centrilobular collagenous accumulation (Masson's trichrome): five-day oral administration; for Fibrosis histopathology: low-dose (carbon tetrachloride: all doses); for Centrilobular collagenous accumulation (Masson's trichrome): 200 mg/kg/day;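 for Inflammation: Severity grades from None 0% through Minimal Mild Moderate to Marked over 80% tissue affected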;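 for Vacuolation: Severity grades from None 0% through Minimal Mild Moderate to Marked over 80% tissue affected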
Protocol: All chemical compounds were diluted in corn oil (CAS No. 8001-30-7) (MP Biomedicals, LLC (Solon, Ohio)). The dose volume was 5 mL/kg. Doses were selected based on doses published in the DrugMatrix database, the National Toxicology Program reports, and ATSDR reports.
as §1
as §2, with “The remaining half of the left lobe of the liver was flash frozen in liquid nitrogen, then stored below −70° C. Liver specimens were frozen in less than three minutes from time of death.” left out

Tgfb1 = experiment: qPCR of liver RNA: Tgfb1; type: in vivo, Male Sprague-Dawley rats
Protocol: Working on dry ice, a portion (−10 mg) of flash-frozen liver was cut from each sample and transferred to a clean, labeled tube. Total RNA was then isolated using Qiagen's miRNeasy 96 kit (Qiagen, Valencia, Calif.) following manufacturer's instructions with a final elution volume of −150 μL (2×75 μL). The quality and quantity of RNA samples were evaluated with a 2100 Bioanalyzer (Agilent Technologies, Santa Clara, Calif.), using the Agilent RNA 6000 Nano Reagents and a multiwell NanoDrop 8000 spectrophotometer (Thermo Fisher Scientific, Waltham, Mass.).
Using 1 μg RNA input, cDNA was generated using a QuantiTect Reverse Transcription kit (Qiagen, Valencia, Calif.) following manufacturer's instructions. Applied Biosystems SYBR Green Master Mix was used in a 20 μL qPCR reaction with 2 μL of cDNA template and a 2.tM final concentration of each primer. A total of five genes were targeted (Gapdh, Actb, Timp1, Tgfbl, and Psma5), two of which served as the endogenous controls (Gapdh and Actb). An Applied Biosystems 7500 Real-Time PCR System (Applied Biosystems, Foster City, Calif.) was used for thermal cycling and fluorescence detection using the default settings for Quantitation-Comparative CT with SYBR® . . . Green Reagents which uses the following scheme: 95° C. for 10 minutes followed by 40 cycles of: 95° C. for 15 seconds, 60° C. for 1 minute, and a fluorescence signal read. Al! primers were obtained from Integrated DNA Technology's PrimeTime qPCR primer library (Integrated DNA Technologies, Coralville, Iowa).
Data was imported into GraphPad Prism (GraphPad Software, Inc.; LaJolla, Calif.) for analysis. A nonparametric Kruskal-Wallis analysis of variance by ranks with post hoc […] multiple comparison test was used to determine statistical difference among dose groups. A one sample t-test compared to a theoretical mean of 1.0 fold change was used to determine difference from control for each dose group. A p-value<0.05 was used as a cutoff for statistical significance.

[2] = 4,4′-MDA 22 mg/kg, animals 89-92
[3] = 4,4′-MDA 59.7 mg/kg, animals 93-96
[4] = 4,4′-MDA 162 mg/kg, animals 97-100
[5] = across dose groups, five days (figure legend)
[6] = oral gavage five days, across doses
[7] = liver, across dose groups, vs control
[8] = exposures on the gene panel (FIG. 9 legend)
[9] = histopathology score, individual animals, Carbon Tetrachloride 200, Bromobenzene 785, Dexamethasone 1 mg/kg
[10] = Carbon Tetrachloride 200 mg/kg, animal 54

With `Nc1ccc(Cc2ccc(N)cc2)cc1` [4,4′-methylenedianiline] the “Body weight gain over the five experimental dosing days” value ([1]; dose groups) was “decrease in body weight gain”, the “Body weight change over the five-day exposure interval” value [1] was “gained less weight over the five-day exposure interval than their low-dose counterparts” and the “Periportal fibrosis (Masson's trichrome)” value (liver) was “periportal fibrosis”. For the same molecule, the “Periportal fibrosis (Masson's trichrome)” value (liver; listed as 4,4′-methylenediani line) was “Perioportal fibrosis was confirmed”, the “Bile Duct Hyperplasia and Fibroplasia” value (liver; [2]) was 0 and the Inflammation (liver; [2]) was 0. The Necrosis (liver; [2]) was 0, the Vacuolation (liver; [2]) was 0 and the “Bile Duct Hyperplasia and Fibroplasia” value (liver; [3]) was 2 and 3. The Inflammation (liver; [3]) was 2 and 3, the Vacuolation (liver; [3]) was 0 and the “Bile Duct Hyperplasia and Fibroplasia” value (liver; [4]) was 3 and 2. The “Cytoplasmic Alteration” value (liver; [4]) was 2 and 3, the Inflammation (liver; [4]) was 2 and the Necrosis (liver; [4]) was 2 and 1. For the same molecule, the Vacuolation (liver; [4]) was 0, the “Combined histopathological scores as percent of animals with pathology” value (liver; [5]) was “dose-dependent increase in severe pathology” and the Fibrosis histopathology (liver) was “without fibrosis”. The Degree of fibrosis (liver; [6]) was “dose-dependent increase in the degree of fibrosis”, the “Histopathology: bile duct hyperplasia, fibrosis, necrosis” value (liver; oral gavage five days, high doses) was “caused bile duct hyperplasia comorbid with fibrosis and necrosis” and the “Tgfb1 gene expression by qPCR” value (Tgfb1; [7]) was “showed a dose-dependent increase; also recorded: dose-dependent increases in gene expression”.

For `Brc1ccccc1` [bromobenzene], the “Body weight gain over the five experimental dosing days” value ([1]; dose groups) was “decrease in body weight gain”, the “Body weight change over the five-day exposure interval” value [1] was “resulted in body weight loss over the study interval” and the “Combined histopathological scores as percent of animals with pathology” value (liver; [5]) was “dose-dependent increase in severe pathology”. For the same molecule, the “Histopathological evidence of bile duct hyperplasia or fibrosis” value (liver; any dose) was “did not cause histopathological evidence of bile duct hyperplasia or fibrosis at any dose”, the “Histopathological evidence of vacuolation and/or glycogen accumulation” value (liver; [8]) was “correlated with histopathological evidence of vacuolation and/or glyocgen accumulation” and the Vacuolation (liver; highest dose) was “varying degrees of vacuolation in all experimental animals”. The “Bile Duct Hyperplasia and Fibroplasia” value (liver; [9]) was 0, the “Cytoplasmic Alteration” value (liver; [9]) was 1 (2×) and 2 and 3 and the Inflammation (liver; [9]) was 1 (3×) and 2. The Vacuolation (liver; [9]) was 2 and 3 (2×) and 1 and the “Tgfb1 gene expression by qPCR” value (Tgfb1; [7]) was “not significantly affected at any dose; also recorded: slight, statistically insignificant increase”.

With `ClC(Cl)(Cl)Cl` [carbon tetrachloride] the Body weight change ([1]; all doses) was “Body weight gain was less than controls at all doses”, the “Body weight gain over the five experimental dosing days” value ([1]; dose groups) was “decrease in body weight gain” and the “Centrilobular collagenous accumulation (Masson's trichrome)” value (liver) was “pre-fibrogenic lesions in centrilobular region”. For the same molecule, the “Centrilobular collagenous accumulation (Masson's trichrome)” value (liver; listed as Carbon tetrachloride) was “caused prefibrotic centrilobular collagenous accumulation”, the “Bile Duct Hyperplasia and Fibroplasia” value (liver; [10]) was 0 and the “Cytoplasmic Alteration” value (liver; [10]) was 0. The Inflammation (liver; [10]) was 0, the Necrosis (liver; [10]) was 1 and the Vacuolation (liver; [10]) was 3. For the same molecule, the “Combined histopathological scores as percent of animals with pathology” value (liver; [5]) was “dose-dependent increase in severe pathology”, the “Histopathological evidence of vacuolation and/or glycogen accumulation” value (liver; [8]) was “correlated with histopathological evidence of vacuolation and/or glyocgen accumulation” and the “Bile Duct Hyperplasia and Fibroplasia” value (liver; [9]) was 0. The Inflammation (liver; [9]) was 0, the Vacuolation (liver; [9]) was 4 and 3 (2×) and the Fibrosis histopathology (liver) was “without fibrosis”. For the same molecule, the Vacuolation (liver; [6]) was “dose-dependent increase in vacuolation indicative of lipid accumulation without evidence of fibrosis”, the “Tgfb1 gene expression by qPCR” value (Tgfb1; [7]) was “insignificant” and the “Tgfb1 gene expression by qPCR” value (Tgfb1; liver, across dose groups, vs control, listed as Carbon tetrachloride) was “not significantly upregulated at any dose”.

For `C[C@@H]1C[C@H]2[C@@H]3CCC4=CC(=O)C=C[C@]4(C)[C@@]3(F)[C@@H](O)C[C@]2(C)[C@@]1(O)C(=O)CO` [dexamethasone], the Body weight change ([1]; rat, in vivo) was “Body weight loss occurred at all doses”, the “Body weight gain over the five experimental dosing days” value ([1]; rat, in vivo) was “decrease in body weight gain” and the Tissue necrosis (liver; highest dose (300 mg/kg)) was “moderate tissue necrosis affecting >60-80% of the tissue in two animals”. The “Combined histopathological scores as percent of animals with pathology” value (liver; rat, in vivo) was “dose-dependent increase in severe pathology”, the Cytoplasmic Alteration (liver; rat, in vivo) was “marked cytoplasmic alteration characteristic of glycogen accumulation” and the “Histopathological evidence of vacuolation and/or glycogen accumulation” value (liver; rat, in vivo) was “correlated with histopathological evidence of vacuolation and/or glyocgen accumulation”. For the same molecule, the “Tgfb1 gene expression by qPCR” value (Tgfb1; 44.8 mg/kg) was “the difference was not statistically significant”, the “Tgfb1 gene expression by qPCR” value (Tgfb1; 1, 6.7, or 300 mg/kg) was “significantly downregulated” and the “Tgfb1 gene expression by qPCR” value (Tgfb1; [7]) was “decreased gene expression”.
